Values of other authors as cited in US8709515B1, “Nutritional supplement method” (priority 2009, dated 2014).

Experiments:
[1] = tested on: selenite induced cataracts in rats
albino rats = conditions: fed in the water to albino rats
rats = conditions: one eye with induced increase in intraocular pressure

dose above which it may not be safe (cats)	Compound	progression of cataract [1]	light-induced photoreceptor damage (albino rats)	retinal neuronal death (rats)
higher than 30 mg/day	O=C(O)CCCCC1CCSS1 (stereo not drawn) [Alpha lipoic acid]			
	O=C(O[C@@H]1Cc2c(O)cc(O)cc2O[C@@H]1c1cc(O)c(O)c(O)c1)c1cc(O)c(O)c(O)c1 [EGCG, Epigallocatechin gallate]	retards the progression of cataract	attenuated light-induced photoreceptor damage	attenuated retinal neuronal death
